Key:
Human 11b-HSD1 = target: T1, Human 11b-HSD1 (Homo sapiens, UniProt P28845); assay: Inhibition of cortisone-to-cortisol conversion in CHO-K1 cells over-expressing human 11b-HSD1 (HTRF cortisol assay); assay type: cell-based; settings: CHO-K1 cells over-expressing human 11b-HSD1, 160 nM cortisone, 3 hours, 37° C.
T1 construct: expressed in transfected cells
Description: (§1) cDNA (human: Accession No. U12978.2; mouse: Accession No. NM_008288.2) coding the full-length amino acid sequence of 11β-HSD1 in a human and a mouse was incorporated into pMSCVpuro (from Clontech. Co. Ltd.), a vector of expressing a mammalian cell for the production of a retrovirus, and the resulting product was introduced into a GP2-293 cell (from Clontech Co. Ltd.), a retrovirus packing cell line together with pVSV-G vector (from Clontech Co. Ltd.) by using a Lipotamine plus reagent (from Invitrogen Co. Ltd.) in accordance with the method set forth in the appendix (by using HTRF cortisol assay kit from Cisbio assays Co., Ltd., catalog No. 62CO2PEB) and stabilized for 48 hours. Thereafter, viruses being obtained from those cells were used to infect CHO-K1 cell (from Korean Cell Line Bank, KCLB No. 10061) and in 24 hours, the cells were treated with 10 μg/ml pumycin (from Sigma Co. Ltd.) for two weeks to produce a stabilized cell system wherein each 11β-HSD1 in humans or in mice was over-expressed. When the cells being maintained, 5 μg/ml of puromycin was put into the medium and used (RPMI (Gibco), 37° C.). • Reference material: The EMBO Journal (2008) 27, 642-653
(§2) The obtained cells with 11b-HSD1 in a human and a mouse being over-expressed were sub-cultured in a 96-well plate with a cell number being 3×10^4 cells per well and stabilized for 24 hours [RPMI (Gibco), at 37° C., as being used in 5 days after thawing]. After a medium as diluted with DMSO including 160 nM of cortisone (from Sigma Co. Ltd.) and a test compound at a different concentration was put into each well in an amount of 200 ul, the well was cultured in a cell cultivator at 37° C. for 3 hours. 10 ul of the cultured solution was put into a 384 well plate and the amount of cortisol as generated was measured using a cortisol kit (from Cisbio international Co. Ltd, HTRF assay) in accordance with the method set forth in the appended manual.
(§3) As a control group, 160 nM of cortisone and 1% of DMSO were put into a corresponding well. The ground value was obtained from a well including only 160 nM of cortisone and 1% of DMSO without cells just like the control group. The calculation for a % inhibition level was made following the manual as appended. • Reference material: The Journal of Steroid Biochemistry and Molecular Biology, Volume 104, Issues 3-5, May 2007, Pages 123-129 • Bioorganic & Medicinal Chemistry Letters Volume 19, Issue 10, 15 May 2009, Pages 2674-2678
(§4) Like the analyzing method as stated above, the efficacy of inhibiting 11b-HSD1 was calculated as IC50 and the results are shown in Table 1: […]

Mouse 11b-HSD1 = target: T2, Mouse 11b-HSD1 (Mus musculus, UniProt P50172); assay: Inhibition of cortisone-to-cortisol conversion in CHO-K1 cells over-expressing mouse 11b-HSD1 (HTRF cortisol assay); assay type: cell-based; settings: CHO-K1 cells over-expressing mouse 11b-HSD1, 160 nM cortisone, 3 hours, 37° C.
T2 construct: expressed in transfected cells
T2 sequence (P50172 whole entry): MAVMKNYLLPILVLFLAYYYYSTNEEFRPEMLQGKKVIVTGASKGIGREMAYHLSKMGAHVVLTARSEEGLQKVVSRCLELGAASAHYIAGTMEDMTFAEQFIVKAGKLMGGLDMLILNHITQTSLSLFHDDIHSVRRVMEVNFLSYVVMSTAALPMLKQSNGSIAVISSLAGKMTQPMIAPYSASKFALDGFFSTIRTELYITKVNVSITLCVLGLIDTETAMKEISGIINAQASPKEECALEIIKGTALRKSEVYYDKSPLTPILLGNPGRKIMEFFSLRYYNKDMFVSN
Description: as §1, §2, §3, §4

T1 sequence (P28845 whole entry): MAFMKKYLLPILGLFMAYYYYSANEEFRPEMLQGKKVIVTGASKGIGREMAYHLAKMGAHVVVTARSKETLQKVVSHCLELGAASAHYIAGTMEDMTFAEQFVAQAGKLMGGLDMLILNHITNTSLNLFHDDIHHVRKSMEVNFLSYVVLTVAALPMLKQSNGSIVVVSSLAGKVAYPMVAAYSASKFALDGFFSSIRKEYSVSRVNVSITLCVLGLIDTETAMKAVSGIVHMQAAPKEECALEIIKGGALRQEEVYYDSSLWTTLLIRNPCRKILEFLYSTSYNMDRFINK

SMILES	IC50 (Human 11b-HSD1) [µM]	IC50 (Mouse 11b-HSD1) [µM]
Cc1ccc(-c2ccc(C(=O)N[C@H]3C4CC5CC3C[C@](C(N)=O)(C5)C4)o2)cc1 [Example 4, N-(5-carbamoyl-2-adamantyl)-5-(4-methylphenyl)furan-2-carboxamide]	< 0.1	0.1 to 0.5
Cc1cccc(-c2cc(C(=O)N[C@H]3C4CC5CC3C[C@](C(N)=O)(C5)C4)no2)c1 [Example 6, N-(5-carbamoyl-2-adamantyl)-5-(3-methylphenyl)-1,2-oxazole-3-carboxamide]	> 0.5	> 0.5
COc1ccccc1-c1cc(C(=O)N[C@H]2C3CC4CC2C[C@](C(N)=O)(C4)C3)no1 [Example 7, N-(5-carbamoyl-2-adamantyl)-5-(2-methoxyphenyl)-1,2-oxazole-3-carboxamide]	> 0.5	> 0.5
Cc1ccccc1-c1cc(C(=O)N[C@H]2C3CC4CC2C[C@](C(N)=O)(C4)C3)no1 [Example 8, N-(5-carbamoyl-2-adamantyl)-5-(2-methylphenyl)-1,2-oxazole-3-carboxamide]	0.1 to 0.5	> 0.5
NC(=O)[C@]12CC3CC(C1)[C@@H](NC(=O)c1cc(-c4ccc(Cl)cc4)on1)C(C3)C2 [Example 13, N-(5-carbamoyl-2-adamantyl)-5-(4-chlorophenyl)-1,2-oxazole-3-carboxamide]	0.1 to 0.5	> 0.5
Cn1cccc1C(=O)N[C@H]1C2CC3CC1C[C@](C(N)=O)(C3)C2 [Example 17, N-(5-carbamoyl-2-adamantyl)-1-methylpyrrole-2-carboxamide]	> 0.5	> 0.5
NC(=O)[C@]12CC3CC(C1)[C@@H](NC(=O)c1ccc(-c4cccs4)s1)C(C3)C2 [Example 21, N-(5-carbamoyl-2-adamantyl)-5-thiophen-2-yl-thiophene-2-carboxamide]	< 0.1	< 0.1
Cc1ccc(C(=O)N[C@H]2C3CC4CC2C[C@](C(N)=O)(C4)C3)s1 [Example 24, N-(5-carbamoyl-2-adamantyl)-5-methylthiophene-2-carboxamide]	< 0.1	0.1 to 0.5
NC(=O)[C@]12CC3CC(C1)[C@@H](NC(=O)c1ccc(-c4ccc(F)cc4)o1)C(C3)C2 [Example 25, N-(5-carbamoyl-2-adamantyl)-5-(4-fluorophenyl)furan-2-carboxamide]	< 0.1	< 0.1
COc1ccc(-c2ccc(C(=O)N[C@H]3C4CC5CC3C[C@](C(N)=O)(C5)C4)o2)cc1 [Example 28, N-(5-carbamoyl-2-adamantyl)-5-(4-methoxyphenyl)furan-2-carboxamide]	< 0.1	0.1 to 0.5
NC(=O)[C@]12CC3CC(C1)[C@@H](NC(=O)c1ccc(-c4ccc(F)c(F)c4)o1)C(C3)C2 [Example 29, N-(5-carbamoyl-2-adamantyl)-5-(3,4-difluorophenyl)furan-2-carboxamide]	< 0.1	0.1 to 0.5
NC(=O)[C@]12CC3CC(C1)[C@@H](NC(=O)c1ccc(-c4ccc(Cl)c(Cl)c4)o1)C(C3)C2 [Example 31, N-(5-carbamoyl-2-adamantyl)-5-(3,4-dichlorophenyl)furan-2-carboxamide]	< 0.1	0.1 to 0.5
NC(=O)[C@]12CC3CC(C1)[C@@H](NC(=O)c1ccc(-c4cc(Cl)cc(Cl)c4)o1)C(C3)C2 [Example 32, N-(5-carbamoyl-2-adamantyl)-5-(3,5-dichlorophenyl)furan-2-carboxamide]	< 0.1	0.1 to 0.5
Cn1c(C(=O)N[C@H]2C3CC4CC2C[C@](C(N)=O)(C4)C3)ccc1-c1cccc(Cl)c1 [Example 33, N-(5-carbamoyl-2-adamantyl)-5-(3-chlorophenyl)-1-methylpyrrole-2-carboxamide]	< 0.1	< 0.1
Cn1c(C(=O)N[C@H]2C3CC4CC2C[C@](C(N)=O)(C4)C3)ccc1-c1ccc(Cl)cc1 [Example 35, N-(5-carbamoyl-2-adamantyl)-5-(4-chlorophenyl)-1-methylpyrrole-2-carboxamide]	< 0.1	0.1 to 0.5
Cn1c(C(=O)N[C@H]2C3CC4CC2C[C@](C(N)=O)(C4)C3)ccc1-c1ccc(F)cc1 [Example 36, N-(5-carbamoyl-2-adamantyl)-5-(4-fluorophenyl)-1-methylpyrrole-2-carboxamide]	< 0.1	< 0.1
Cn1c(C(=O)N[C@H]2C3CC4CC2C[C@](C(N)=O)(C4)C3)ccc1-c1ccc(C(F)(F)F)cc1 [Example 37, N-(5-carbamoyl-2-adamantyl)-1-methyl-5-[4-(trifluoromethyl)phenyl]pyrrole-2-carboxamide]	< 0.1	0.1 to 0.5
NC(=O)[C@]12CC3CC(C1)[C@@H](NC(=O)c1ccc(-c4ccc(Cl)cc4)s1)C(C3)C2 [Example 41, N-(5-carbamoyl-2-adamantyl)-5-(4-chlorophenyl)thiophene-2-carboxamide]	< 0.1	0.1 to 0.5
Cc1noc(C)c1COc1cccc(C(=O)N[C@H]2C3CC4CC2C[C@](C(N)=O)(C4)C3)n1 [Example 48, N-(5-carbamoyl-2-adamantyl)-6-[(3,5-dimethyl-1,2-oxazol-4-yl)methoxy]pyridine-2-carboxamide]	< 0.1	–

Further lines, results first:

IC50 (Human 11b-HSD1) [µM]	IC50 (Mouse 11b-HSD1) [µM]	SMILES
< 0.1	> 0.5	NC(=O)[C@]12CC3CC(C1)[C@@H](NC(=O)c1ccc(-c4ccc([N+](=O)[O-])cc4)o1)C(C3)C2 [Example 3, N-(5-carbamoyl-2-adamantyl)-5-(4-nitrophenyl)furan-2-carboxamide]
> 0.5	> 0.5	NC(=O)[C@]12CC3CC(C1)[C@@H](NC(=O)c1cc(-c4cccc(F)c4)on1)C(C3)C2 [Example 12, N-(5-carbamoyl-2-adamantyl)-5-(3-fluorophenyl)-1,2-oxazole-3-carboxamide]
< 0.1	0.1 to 0.5	Cc1cccc(C(=O)N[C@H]2C3CC4CC2C[C@](C(N)=O)(C4)C3)n1 [Example 15, N-(5-carbamoyl-2-adamantyl)-6-methylpyridine-2-carboxamide]
> 0.5	> 0.5	NC(=O)[C@]12CC3CC(C1)[C@@H](NC(=O)c1ccccn1)C(C3)C2 [Example 16, N-(5-carbamoyl-2-adamantyl)pyridine-2-carboxamide]
0.1 to 0.5	> 0.5	NC(=O)[C@]12CC3CC(C1)[C@@H](NC(=O)c1cccs1)C(C3)C2 [Example 22, N-(5-carbamoyl-2-adamantyl)thiophene-2-carboxamide]
0.1 to 0.5	0.1 to 0.5	Cc1csc(C(=O)N[C@H]2C3CC4CC2C[C@](C(N)=O)(C4)C3)c1 [Example 23, N-(5-carbamoyl-2-adamantyl)-4-methylthiophene-2-carboxamide]
< 0.1	< 0.1	NC(=O)[C@]12CC3CC(C1)[C@@H](NC(=O)c1ccc(-c4cccc(Cl)c4)s1)C(C3)C2 [Example 42, N-(5-carbamoyl-2-adamantyl)-5-(3-chlorophenyl)thiophene-2-carboxamide]
< 0.1	< 0.1	NC(=O)[C@]12CC3CC(C1)[C@@H](NC(=O)c1ccc(-c4ccccc4F)s1)C(C3)C2 [Example 44, N-(5-carbamoyl-2-adamantyl)-5-(2-fluorophenyl)thiophene-2-carboxamide]
< 0.1	0.1 to 0.5	COc1cccc(C(=O)N[C@H]2C3CC4CC2C[C@](C(N)=O)(C4)C3)n1 [Example 45, N-(5-carbamoyl-2-adamantyl)-6-methoxypyridine-2-carboxamide]

From US9233957B2, “5-carbamoyl-adamantan-2-yl amide derivatives, pharmaceutically acceptable salts thereof and preparation process thereof” (SK BIOPHARMACEUTICALS CO., LTD., priority 2011, dated 2016)
